Two compounds from patent publication US20230181499A1, “Hydroxyureamethyl-Acylfulvene for Treating Brain Cancer or CNS Cancer” (Lantern Pharma Inc., priority 2020, published 2023) can be followed below.

Series [1] deals with glioblastoma U87-SC cells. The series can be described thus: U87 subcutaneous xenograft tumor model of GBM. It is filed as in vivo, mice. The note with it: 4 every other day intravenous doses at 4 mg/kg. From the text:
(§1) To evaluate the in vivo therapeutic activity of Hydroxyureamethyl-acylfulvene in mice bearing glioblastoma U87-SC cells (without any drug treatment in vitro) were inoculated subcutaneously.

The subject of another series is GBM neurospheres (M1123). The experiment in a line: Mice implanted with GBM neurospheres (M1123), subcutaneous tumor model. It is filed as in vivo.
The subject of a further series is blood-brain barrier. The experiment in a line: Neuromics in vitro 3D blood-brain barrier model (brain endothelial cells, pericytes, astrocytes). The note with it: for blood-brain barrier penetration (in words): in vitro model system. It is filed as in vitro ADME, human.
Description: as §1
(§2) By way of background, the physically, metabolically and immunologically privileged status of the brain presents diagnostic and therapeutic limitations along with treatment-related neurotoxicity issues. A critical property of any drug for GBM would be its ability to penetrate the blood-brain barrier (BBB). […] In the highly representative Neuromics in vitro 3D model that closely recapitulates the human blood-brain barrier, transport properties of the blood-brain barrier are reflected due to the formation of tight junctions, higher expression of specific carriers, or great cell viability. This 3D in vitro model of the blood-brain barrier created by co-culturing brain endothelial cells with pericytes and astrocytes layered in an insert, improves endothelial cell polarization and enhances the formation of tight junctions, provides better endothelial cell-to-cell contact that is important for barrier development, and prevents the dilution of secreted neurotrophic factors. These conditions collectively lead to the development of an in vitro model that can truly mimic the blood-brain barrier. This assay leverages the novel 3D blood-brain barrier model that allows studying both compound transport across the barrier as well as the effect of compounds on the structure and function of the blood-brain barrier. Along with LP-184 and TMZ, the current standard of care chemotherapeutic for GBM, we also compared the behavior of known positive and negative control agents Antipyrine and Cyclosporin A respectively as benchmarks. […] Apparent blood brain barrier permeability measured for TMZ was 1.72*10-4 cm/s at 30 minutes and for LP-184 was 1.53*10-4 cm/s at 30 minutes, as illustrated in the following graph.

Experiment in series [2]: as above
It is filed as in vitro ADME, human. The note with it: human.
Description: as §1, §2

Molecules are shown by their SMILES.

Consider `CC1=C(CN(O)C(N)=O)C2=C(C)C3(CC3)[C@@](C)(O)C(=O)C2=C1` [LP-184, hydroxyureamethyl-acylfulvene], for which the tumor response result (in series [1]; in the series with GBM neurospheres (M1123) (4 every other day intravenous doses at 4 mg/kg)) was “complete tumor regression” throughout. In addition, the “mice with no measurable tumors 12 days post the last dosing” value in series [1] (5 mice treated) is on record as “all 5 mice”. Also, in the series on GBM neurospheres (M1123) (4 every other day intravenous doses at 4 mg/kg, four mice), the “mice with no measurable tumor after 12 days of the last dose” value was “Three of four mice”. Besides, in the series with GBM neurospheres (M1123) (FIG. 7), the “tumor volume relative to vehicle-treated control mice (physical observation)” value is on record as “clear tumor growth inhibition”. In addition, the blood-brain barrier integrity result in the series on blood-brain barrier (FIG. 3) is recorded as “not compromised”. Also, the “impact on cell viability” value in the series on blood-brain barrier (blood-brain barrier model, FIG. 3/4) is recorded as “insignificant impact on cell viability”. Moreover, the “blood-brain barrier penetration (in words)” value with blood-brain barrier is listed as “as effective as TMZ in penetrating the blood-brain barrier”; in the series with blood-brain barrier (listed as Hydroxyureamethyl-acylfulvene) it was “shown to cross the blood-brain barrier”.
The term Papp denotes the rate of passage across a membrane or cell layer, normalised by area and donor concentration. High values mean ready permeation, low ones poor permeation. `Cn1nnc2c(C(N)=O)ncn2c1=O` [TMZ, temozolomide, reference compound] showed an apparent permeability coefficient (Papp) at 30 min in series [2] of 172 ×10⁻⁶ cm/s.
